Data from US20200270309A1, “MALEIMIDE GROUP-MODIFIED ANGIOGENESIS INHIBITOR HM-1 AND USE THEREOF” (NANJING ANJI BIOLOGICAL TECHNOLOGY CO., LTD, priority 2017, published 2020).
Peptide text beside a SMILES is read from it. * marks the point of attachment. X60 = O=C1C=CC(=O)N1c1ccccc1CCCCCCCCCC(=O)*; X55 = O=C1C=CC(=O)N1c1ccccc1CCCCCCCCC(=O)*; X71 = O=C1C=CC(=O)N1c1cccc(CCCCCC(=O)*)c1; X49 = O=C1C=CC(=O)N1c1ccccc1CCCCCC(=O)*

Legend:
[1] = tested on: IL-1β production by mouse peritoneal macrophages; assay: IL-1β production by mouse peritoneal macrophages (ELISA); format: cell-based; details: for Inhibition rate: IL-1β production, vs model group; for IL-1β: mouse peritoneal macrophages, 48 h, ELISA
Protocol: Mice were injected intraperitoneally with 1 mL of broth culture medium (containing 6% of starch). Three days later, mice peritoneal macrophages were taken aseptically and washed twice with 1640 culture medium, and the cell concentration was adjusted to 2×10^6 cells/mL. The solutions were injected into 24-well culture plates at 1 mL per well. The cells were incubated in a cell incubator for 3 h and vibrated once every 30 min to make the cells fully adhere to the wall. Then, the cells were washed twice with a culture solution to remove non-adhered cells. PBS was added to the blank group, positive drug Dex was added to the positive group, no drug was added to the model group, and polypeptides X1-X90 with low, medium and high concentrations were added to the test groups; and the cells were continuously cultured for 48 h after administration, and then centrifuged at 1000 r/min for 15 min. The supernatant was collected as a sample to be tested for IL-1β activity.

[2] = tested on: retinal vascular endothelial nuclei; assay: Neovascularization in a rat model of premature retinopathy; format: in vivo, rats; details: for Nuclei count (retinal vascular endothelial nuclei, average per section per eyeball): dose 0.05 μM in the vitreous chamber from day 7 of modeling for one week, counted on day 14, oxygen-induced neonatal rats
Protocol: Using a fluctuating oxygen-induced animal model, newborn rats born naturally on the same day (within 12 h) were randomly divide into three groups: an oxygen model group, an oxygen treatment group and a normal control group. The oxygen model was further divided into three sub-group model groups, and the sub-group model groups and the treatment group were all placed in a semi-closed oxygen chamber made of organic glass; medical oxygen was introduced into the chamber, and the concentration was adjusted to 80%±2% by an oxygen meter; nitrogen was introduced into the oxygen chamber after 24 h, and the oxygen concentration was adjusted to 10%±2% rapidly and maintained for 24 h. This was repeated to keep the oxygen concentration in the oxygen chamber alternating between 80% and 10% every 24 h, the oxygen concentration was maintained for 7 d, and then the rats were fed in the air. The oxygen concentration was monitored 8 times a day, and the ambient temperature in the chamber was controlled at 23° C.±2° C. Bedding was replaced, feed was added, and water and mother rats were replaced once. The normal control group was placed in the animal room feeding environment. […] The oxygen treatment group was divided into three subgroups. On day 7 of modeling, X1-[…], […]-[…] and […]-X90 were injected in the vitreous chamber respectively, and the oxygen model group and the control group were only given normal saline for one week. On day 14, after the rats were anesthetized by diethyl ether and killed, eyeballs were extracted and fixed in 40 g/L paraformaldehyde solution for 24 h. Gradient dehydration by alcohol was performed, and the eyeballs were processed by xylene to be transparent. After waxing, the eyeballs were sectioned continuously to a thickness of 4μm, and the periphery of the optic disc should be avoided as much as possible. The sections were parallel to the sagittal plane from cornea to the optic disc. Ten sections of each eyeball were randomly taken and stained with hematoxylin eosin, the number of vascular endothelial nuclei that broke through the inner limiting membrane of the retina (only the number of vascular endothelial nuclei closely related to the inner limiting membrane were counted) was counted, and statistics of the average number of cells per section per eyeball was performed. Results: In the control group, there were no vascular endothelial nuclei that broke through the inner limiting membrane of the retina and grew into vitreous body, or the vascular endothelial nuclei were occasionally found in only a few sections. In the model group, there were many vascular endothelial nuclei that broke through the inner limiting membrane of the retina, some appeared alone, and some appeared in clusters. At the same time, on some sections, these vascular endothelial nuclei were also found adjacent to deep retinal vessels, confirming that they originated from the retina rather than the vitreous body or other ocular tissues. In the treatment group, only a few vascular endothelial nuclei that broke through the inner limiting membrane of retina could be seen in the sections.

[3] = tested on: splenic lymphocytes; assay: Proliferation of splenic lymphocytes in mice (ConA, MTT); format: cell-based; details: ConA-stimulated mouse splenic lymphocytes, 48 h
Protocol: Spleens of mice were taken out under aseptic conditions, washed with blank 1640 culture medium 3 times, ground with a 5 mL syringe core, filtered with a 200-mesh sieve, made into a single cell suspension. The suspension was centrifuged (1000 rpm×5 min), and supernatant was removed. Red blood cells were lysed by Tris-NH4Cl, and placed in ice water bath for 4 min and centrifuged (1000 rpm×5 min). The supernatant was removed, and the cells were washed twice with sterile PBS. Finally, RPMI 1640 culture solution (5 mL) containing 10% calf serum was added to suspend the cells. The cells were counted and the cell concentration was adjusted to 5×10^6 cells/mL, and the cells were cultured in a 96-well culture plate.
Blank control group, concanavalin A (ConA) group and dexamethasone (Dex) group were set in the experiment, and polypeptide X1-X90 groups were set as test groups. After 100 μL of splenic lymphocytes suspension per well was added into each group, 100 μL of blank 1640 culture solution was added into the blank control group, ConA was added into the ConA group, Dex was added into the Dex group, and ConA was added into the test groups on the basis of adding different concentrations of polypeptides X1-X90. The cells were static cultured at 37° C. in a cell incubator for 48 h. After the cultivation was completed, 20 μL of MTT was added to each well, and the cultivation was continued for 4 h. Finally, all the solutions in each well were discarded. 100 μL DMSO was added to each well and shaken, and the OD value at 570 nm was detected with a microplate reader. Five parallel experiments were set in each well.

Structure (SMILES) | Inhibition rate ([1]; dose 0.05 μM) [%] | IL-1β ([1]; dose 0.05 μM) [pg/mL] | Inhibition rate ([1]; dose 0.1 μM) [%] | IL-1β ([1]; dose 0.1 μM) [pg/mL] | Inhibition rate ([1]; dose 0.2 μM) [%] | IL-1β ([1]; dose 0.2 μM) [pg/mL] | Nuclei count (retinal vascular endothelial nuclei, average per section per eyeball) [2] | A570 nm/A630 nm ([3]; polypeptide dose 0.05 μM) | Inhibition rate (%) ([3]; polypeptide dose 0.05 μM) | A570 nm/A630 nm ([3]; polypeptide dose 0.1 μM) | Inhibition rate (%) ([3]; polypeptide dose 0.1 μM) | A570 nm/A630 nm ([3]; polypeptide dose 0.2 μM) | Inhibition rate (%) ([3]; polypeptide dose 0.2 μM) | retinal vascular endothelial nuclei count ([2]; dose 0.05 μm, vitreous injection)
C[C@H](NC(=O)CNC(=O)[C@H](CCCNC(=N)N)NC(=O)CCCCCCCCCc1ccccc1N1C(=O)C=CC1=O)C(=O)N[C@@H](CC(=O)O)C(=O)N[C@@H](CCCNC(=N)N)C(=O)N[C@@H](C)C(=O)NCC(=O)NCC(=O)NCC(=O)NCC(=O)N[C@@H](CCCNC(=N)N)C(=O)NCC(=O)N[C@@H](CC(=O)O)C(=O)O [X21] (X60-RGADRAGGGGRGD-OH) | 17.80 | 773.58 ± 10.52 | 32.29 | 637.22 ± 12.95 | 44.01 | 526.94 ± 17.75 | 7.222 ± 3.567 | 0.5904 ± 0.0399 | 12.59 | 0.5776 ± 0.1193 | 14.48 | 0.4947 ± 0.1055 | 26.75 | –
C[C@H](NC(=O)CNC(=O)[C@H](CCCNC(=N)N)NC(=O)CCCCCCCCc1ccccc1N1C(=O)C=CC1=O)C(=O)N[C@@H](CC(=O)O)C(=O)N[C@@H](CCCNC(=N)N)C(=O)N[C@@H](C)C(=O)NCC(=O)NCC(=O)NCC(=O)NCC(=O)N[C@@H](CCCNC(=N)N)C(=O)NCC(=O)N[C@@H](CC(=O)O)C(=O)O [X20] (X55-RGADRAGGGGRGD-OH) | 17.90 | 772.72 ± 18.78 | 23.02 | 724.50 ± 12.58 | 32.89 | 631.59 ± 19.52 | 9.374 ± 3.742 | 0.5977 ± 0.1129 | 11.50 | 0.5419 ± 0.0423 | 19.77 | 0.4947 ± 0.1213 | 26.75 | –
C[C@H](NC(=O)CNC(=O)[C@H](CCCNC(=N)N)NC(=O)CCCCCc1cccc(N2C(=O)C=CC2=O)c1)C(=O)N[C@@H](CC(=O)O)C(=O)N[C@@H](CCCNC(=N)N)C(=O)N[C@@H](C)C(=O)NCC(=O)NCC(=O)NCC(=O)NCC(=O)N[C@@H](CCCNC(=N)N)C(=O)NCC(=O)N[C@@H](CC(=O)O)C(=O)O [X29] (X71-RGADRAGGGGRGD-OH) | 16.20 | 788.74 ± 15.39 | 21.75 | 736.46 ± 14.72 | 40.73 | 557.81 ± 12.11 | 9.533 ± 2.225 | 0.5595 ± 0.0932 | 17.16 | 0.5284 ± 0.0661 | 21.76 | 0.5094 ± 0.1191 | 24.58 | –
C[C@H](NC(=O)CNC(=O)[C@H](CCCNC(=N)N)NC(=O)CCCCCc1ccccc1N1C(=O)C=CC1=O)C(=O)N[C@@H](CC(=O)O)C(=O)N[C@@H](CCCNC(=N)N)C(=O)N[C@@H](C)C(=O)NCC(=O)NCC(=O)NCC(=O)NCC(=O)N[C@@H](CCCNC(=N)N)C(=O)NCC(=O)N[C@@H](CC(=O)O)C(=O)O [X17] (X49-RGADRAGGGGRGD-OH) | 16.02 | 790.35 ± 11.07 | 43.57 | 531.11 ± 17.61 | 43.90 | 528.00 ± 10.53 | 7.012 ± 1.321 | 0.6219 ± 0.0629 | 7.92 | 0.5484 ± 0.1109 | 18.80 | 0.5025 ± 0.0957 | 25.60 | 7.012±1.321
